Patent US12221494B2, “Short synthetic peptides and their uses for treating retinal degenerative diseases and/or tissue injuries” (MacKay Memorial Hospital, priority 2019, dated 2025)

What was measured:
ARPE-19 cells = test: 4-HNE induced apoptosis of ARPE-19 cells (TUNEL staining); assay type: cell-based, human; details: 20 μM peptide pretreatment, 25 μM 4-HNE 24 h
Method: FIG. 6. The protective effect of the 6-mer dS on ARPE-19 cells against 4-HNE induced apoptosis. Cells were deprived of serum for 24 h and then pretreated with 20 μM 6-mer dS or solvent prior to exposed with 25 μM 4-HNE for additional 24 h. Apoptosis was determined by TUNEL staining (green dots) and counter-stained with Hoechst 33258 (blue dots). (A) Representative graphs from three independent experiments are shown. (B) The percentage of cell death was quantified by dividing the number of TUNEL-positive cells to a population of 2000 counted cells per condition. TUNEL, terminal deoxynucleotidyl transferase-mediated dUTP nick end-labeling. ^aP<0.00003 versus solvent-treated cells. ^bP<0.0006 versus solvent/4-HNE-treated cells.
Reference is made to FIG. 6, which depicts the protective effect of 6-mer dS or 6-mer dE on 4-hydroxy-2-nonenal (4-HNE) induced apoptosis of ARPE-19 cells. 4-hydroxy-2-nonenal (4-HNE) is a product of lipid oxidation, and is also considered as one of the most formidable reactive aldehydes capable of forming adduct with various cellular targets, particularly proteins involve in redox signaling.

[1] = test system: STZ-induced diabetic mice; test: GFAP immunofluorescence staining of retina of STZ-induced diabetic mice; assay type: in vivo, mouse; details: eye drop, 14 days after STZ injection, vehicle/STZ 24.3±2.7
Method: Deparaffinized retinal sections were blocked with 10% goat serum and 5% bovine serum albumin (BSA) in PBS containing 0.5% TritonX-100 (PBST) for 20 min at room temperature for blocking nonspecific staining. Staining was performed using primary antibodies against glial fibrillary acidic protein (GFAP) (1:100 dilution) or Iba-1 (1:100 dilution) at 37° C. for 3 h. The slides were subsequently incubated with the appropriate fluorescent-labeled secondary antibodies (1:500 dilution) at 37° C. for 1 h and then counterstained with Hoechst 33258 for 6 min. The slides were then rinsed with PBST three times, mounted with FluorSave™ reagent (Calbiochem) and viewed with an epifluorescence microscope (Zeiss Axioplan 2 imaging; Zeiss, Oberkochen, Germany) Three sections per eye were averaged and the mean of six eyes was recorded as the representative value for each group.
Diabetic mice were generated by intraperitoneal injection of streptozotocin (STZ; 200 mg/kg body weight) at day 1 and day 3. STZ was freshly prepared in 0.1 M citrate buffer (pH 4.5). After injection, mice were supplied with 10% sucrose overnight to prevent sudden hypoglycaemic shock. […] Vascular lesions in the retina was scored in all four retinal quadrants of flat mounts by an epifluorescence microscopy at 200×. […]

STAT3 = test: Western blot of STAT3 phosphorylation in C2C12 cells; assay type: cell-based, mouse; details: C2C12 myoblast cells, 5 to 20 min after stimulation
Method: Cell lysis, fractionation, and SDS-PAGE were conducted in accordance with procedures described previously (Yang Y C et al., BMC Cancer 2007; 7:216). Antibodies used in this study were for Phospho-Stat3 and STAT3 (1:1000-fold dilution). Proteins of interest were detected using the appropriate IgG-HRP secondary antibody (Santa Cruz Biotechnology) and ECL reagent (Amersham Biosciences).

## NH2-(D-Ser)-Leu-Gly-Ala-Glu-Gln-COOH (SLGAEQ; HELM PEPTIDE1{[dS].L.G.A.E.Q}$$$$V2.0; SMILES CC(C)C[C@H](NC(=O)[C@H](N)CO)C(=O)NCC(=O)N[C@@H](C)C(=O)N[C@@H](CCC(=O)O)C(=O)N[C@@H](CCC(N)=O)C(=O)O) [6-mer dS]
ARPE-19 cells
  4-HNE induced apoptosis (TUNEL), in words: could suppress 4-HNE induced apoptosis
[1]
  GFAP-positive astrocytes: 11.0±1.4 numbers/400× field
STAT3
  STAT3 phosphorylation (immunoblot): led to STAT3 phosphorylation
